{"source": "patent US8263821B2", "about": "“Non-invasive real-time in vivo bioluminescence imaging of local CaÂ2+ dynamics in living organisms” (priority 2004, dated 2012)", "key": {"[1]": {"system": "Ca2+ oscillations in somatosensory cortex slices", "assay": "Mitochondrial Ca2+ oscillations (bioluminescence) in organotypic cortical slices from mtGA transgenic mice", "type": "cell-based, mouse", "conditions": "D-APV 50 μM; slices from P4 mtGA mice, 4-5 days in culture"}, "cortical neurons": {"system": "cortical neurons", "assay": "Single-cell Ca2+ induced bioluminescence in cortical neurons transfected with GA", "type": "cell-based", "conditions": "GA reconstituted with h coelenterazine", "method": "Cultures were plated on to glass-bottomed dishes and mounted to a stage adapter on a fully automated inverted microscope mounted in a black-box. GFP-Aequorin was reconstituted with 2.5-5 μM coelenterazine for 30 minutes at 37° C. Incubation of cells with coelenterazine that had been transfected with SynGA was undertaken at room temperature to reduce the consumption of the photoprotein during the reconstitution process. Cells were perfused with tyrodes buffer. Prior to bath application of NMDA, cells were perfused for 1 minute without Mg^2+. All recordings were made at room temperature (22-25° C.). […]\nThe fluorescence/bioluminescence wide field microscopy system was custom built by ScienceWares, Inc. The system includes a fully automated inverted microscope (200M, Zeiss Germany) and is housed in a light-tight dark box. […] Low level light emission (photon rate <100 kHz), was collected using an Image Photon Detector (IPD 3, Photek Ltd.) connected to the baseport of the microscope, which assigns an X, Y coordinate and time point for each detected photon (Miller et al., 1994). The system is fully controlled by the data acquisition software, which also converts single photon events into an image that can be superimposed with brightfield or fluorescence images made by a connected CCD camera to the C-port (Coolsnap HQ, Roper Scientific). […]"}}, "data": [{"smiles": "N[C@H](CCCP(=O)(O)O)C(=O)O", "note": "[D-APV]", "values": [{"measurement": "block of Ca2+ oscillations generated by removal of Mg2+ from the buffer", "setting": "[1]", "value": "completely and reversibly blocked"}]}, {"smiles": "[Cl-].[K+]", "note": "[KCl]", "values": [{"measurement": "Ca2+ induced bioluminescence signal after stimulation", "setting": "cortical neurons; KCl 90 mM", "value": "robust signal"}]}, {"smiles": "CN[C@H](CC(=O)O)C(=O)O", "note": "[NMDA]", "values": [{"measurement": "Ca2+ induced bioluminescence signal after stimulation", "setting": "cortical neurons; NMDA 100 μM", "value": "robust signal"}]}]}
